≈ marks a conversion by molar mass, not a printed value.
Assays:
Format in all cases: cell-based
[1] = system: Escherichia coli JR66/W677; assay: MIC by serial dilution method on nutrient agar; conditions: for MIC: nutrient agar, 37° C
Experimental: (§1) The minimum inhibitory concentrations (MIC) of 1-AHB-6'-MKM and 1-AHB-6'-EKM against various micro-organisms were determined by the serial dilution method using a nutrient agar medium at 37° C.

[2] = system: Escherichia coli K-12 ML1410; assay: MIC by serial dilution method on nutrient agar; conditions: K12ML1410, 37° C
Experimental: as §1

[3] = system: Escherichia coli K-12 ML1629; assay: MIC by serial dilution method on nutrient agar; conditions: for MIC: K12ML1629, nutrient agar, 37° C
Experimental: as §1

[4] = system: Escherichia coli K-12 ML1630; assay: MIC by serial dilution method on nutrient agar; conditions: for MIC: K12ML1630, nutrient agar, 37° C
Experimental: as §1

Escherichia coli K-12 R5 = assay: MIC by serial dilution method on nutrient agar; conditions: K12R5
Experimental: as §1

Escherichia coli K-12 = assay: MIC by serial dilution method on nutrient agar; conditions: K12, 37° C
Experimental: as §1

[5] = system: Escherichia coli LA290 R55; assay: MIC by serial dilution method on nutrient agar; conditions: LA290R55
Experimental: as §1

[6] = system: Escherichia coli LA290 R56; assay: MIC by serial dilution method on nutrient agar; conditions: LA290R56
Experimental: as §1

[7] = system: Escherichia coli LA290 R64; assay: MIC by serial dilution method on nutrient agar; conditions: LA290R64
Experimental: as §1

Escherichia coli W677 = assay: MIC by serial dilution method on nutrient agar; conditions: 37° C
Experimental: as §1

[8] = system: Klebsiella pneumoniae 22#3038; assay: MIC by serial dilution method on nutrient agar; conditions: for MIC: nutrient agar, 37° C
Experimental: as §1

[9] = system: Klebsiella pneumoniae PCI 602; assay: MIC by serial dilution method on nutrient agar; conditions: PCI602, 37° C
Experimental: as §1

[10] = system: Mycobacterium smegmatis ATCC607; assay: MIC by serial dilution method on nutrient agar; conditions: Mycolicibacterium smegmatis, 37° C
Experimental: as §1

[11] = system: Pseudomonas aeruginosa 99; assay: MIC by serial dilution method on nutrient agar; conditions: 37° C
Experimental: as §1

[12] = system: Pseudomonas aeruginosa A3; assay: MIC by serial dilution method on nutrient agar; conditions: 37° C
Experimental: as §1

[13] = system: Pseudomonas aeruginosa GN315; assay: MIC by serial dilution method on nutrient agar; conditions: for MIC: nutrient agar, 37° C
Experimental: as §1

[14] = system: Pseudomonas aeruginosa No. 12; assay: MIC by serial dilution method on nutrient agar; conditions: 37° C
Experimental: as §1

[15] = system: Pseudomonas aeruginosa TI-13; assay: MIC by serial dilution method on nutrient agar; conditions: for MIC: TI13, nutrient agar, 37° C
Experimental: as §1

[16] = system: Staphylococcus aureus FDA209P; assay: MIC by serial dilution method on nutrient agar; conditions: 37° C
Experimental: as §1

[17] = system: some strains of gram-negative bacteria carrying R factor Staphylococcus aureus and Pseudomonas aeruginosa; assay: resistance of strains isolated from patients

Row | Structure (SMILES) | MIC [1] [µg/mL] | MIC [2] [µg/mL] | MIC [3] [µg/mL] | MIC [4] [µg/mL] | MIC (Escherichia coli K-12 R5) [µg/mL] | MIC (Escherichia coli K-12) [µg/mL] | MIC [5] [µg/mL] | MIC [6] [µg/mL] | MIC [7] [µg/mL] | MIC (Escherichia coli W677) [µg/mL] | MIC [8] [µg/mL] | MIC [9] [µg/mL] | MIC [10] [µg/mL] | MIC [11] [µg/mL] | MIC [12] [µg/mL] | MIC [13] [µg/mL] | MIC [14] [µg/mL] | MIC [15] [µg/mL] | MIC [16] [µg/mL] | further results
1 | CCNC[C@H]1O[C@H](O[C@H]2[C@H](O)[C@@H](O[C@H]3O[C@H](CO)[C@@H](O)[C@H](N)[C@H]3O)[C@H](NC(=O)[C@@H](O)CCN)C[C@@H]2N)[C@H](O)[C@@H](O)[C@@H]1O [1-AHB-6'-EKM, 1-N-(L-4-amino-2-hydroxybutyryl)-6'-N-ethylkanamycin] | 25 (≈ 40.7 µM) | 3.12 (≈ 5.08 µM) | 3.12 (≈ 5.08 µM) | 6.25 (≈ 10.2 µM) | 1.56 (≈ 2.54 µM) | 1.56 (≈ 2.54 µM) | 3.12 (≈ 5.08 µM) | 1.56 (≈ 2.54 µM) | 1.56 (≈ 2.54 µM) | 1.56 (≈ 2.54 µM) | 25 (≈ 40.7 µM) | 1.56 (≈ 2.54 µM) | 3.12 (≈ 5.08 µM) | 100 (≈ 163 µM) | 25 (≈ 40.7 µM) | 100 (≈ 163 µM) | 25 (≈ 40.7 µM) | 50 (≈ 81.5 µM) | 1.56 (≈ 2.54 µM) | –
2 | CNC[C@H]1O[C@H](O[C@H]2[C@H](O)[C@@H](O[C@H]3O[C@H](CO)[C@@H](O)[C@H](N)[C@H]3O)[C@H](NC(=O)[C@@H](O)CCN)C[C@@H]2N)[C@H](O)[C@@H](O)[C@@H]1O [1-AHB-6'-MKM, 1-N-(L-4-amino-2-hydroxybutyryl)-6'-N-methylkanamycin] | 6.25 (≈ 10.4 µM) | 1.56 (≈ 2.6 µM) | 0.78 (≈ 1.3 µM) | 1.56 (≈ 2.6 µM) | 0.78 (≈ 1.3 µM) | 0.39 (≈ 0.65 µM) | 1.56 (≈ 2.6 µM) | 0.78 (≈ 1.3 µM) | 0.78 (≈ 1.3 µM) | 1.56 (≈ 2.6 µM) | 6.25 (≈ 10.4 µM) | 0.78 (≈ 1.3 µM) | 0.39 (≈ 0.65 µM) | 12.5 (≈ 20.8 µM) | 6.25 (≈ 10.4 µM) | 50 (≈ 83.4 µM) | 3.12 (≈ 5.2 µM) | 12.5 (≈ 20.8 µM) | 0.78 (≈ 1.3 µM) | –
3 | CNC[C@H]1O[C@H](O[C@H]2[C@H](O)[C@@H](O[C@H]3O[C@H](CO)[C@@H](O)[C@H](N)[C@H]3O)[C@H](N)C[C@@H]2N)[C@H](O)[C@@H](O)[C@@H]1O [6'-N-methylkanamycin, reference compound] | – | – | – | – | – | – | – | – | – | – | – | – | – | – | – | – | – | – | – | inhibition of kanamycin-resistant strain [1]: does not inhibit; inhibition of kanamycin-resistant strain [3]: does not inhibit; inhibition of kanamycin-resistant strain [4]: does not inhibit; inhibition of kanamycin-resistant strain [8]: does not inhibit; inhibition of kanamycin-resistant strain [13]: does not inhibit; inhibition of kanamycin-resistant strain [15]: does not inhibit
4 | NC[C@H]1O[C@H](O[C@H]2[C@H](O)[C@@H](O[C@H]3O[C@H](CO)[C@@H](O)[C@H](N)[C@H]3O)[C@H](N)C[C@@H]2N)[C@H](O)[C@@H](O)[C@@H]1O [kanamycin] | – | – | – | – | – | – | – | – | – | – | – | – | – | – | – | – | – | – | – | resistance of strains [17]: resistant
